System: tobacco budworm (Heliothis virescens [Fabricius])
Experiment: surface-treated diet test against tobacco budworm
Format: in vivo
Conditions: for Percent Growth Inhibition: inhibition of insect weight relative to untreated controls
[1] = 0.25 millimolar on the surface of the diet, second instar larvae, five-day exposure
[2] = 0.25 millimolar on the surface of the diet, second instar larvae, five-day exposure, compared to the total number of insects infested

Row | Compound | Percent Growth Inhibition [1] | Percent Mortality (in vivo) | Percent Mortality [2]
1 | OC(c1ccc(OC(F)(F)F)cc1)(c1ccc(OC(F)(F)F)cc1)C1CCN(Cc2ccc(C3OCCO3)cc2)CC1 [Compound 1] | 100% | 100% | 
2 | [O-][N+]1(Cc2ccc(C3OCCO3)c(F)c2)CCC(C(O)(c2ccc(OC(F)(F)F)cc2)c2ccc(OC(F)(F)F)cc2)CC1 (stereo not drawn) [Compound 175] | 100% |  | 100%
3 | CC(C)N1CCOC1c1ccc(CN2CCC(C(O)(c3ccc(OC(F)(F)F)cc3)c3ccc(OC(F)(F)F)cc3)CC2)cc1 (stereo not drawn) [Compound 97] | 100% |  | 50%
4 | OC(c1ccc(OC(F)(F)F)cc1)(c1ccc(OC(F)(F)F)cc1)C1CCN(Cc2ccc(C3(Cc4ccccc4)OCCO3)cc2)CC1 [Compound 66] | 100% |  | 67%
5 | CC1(C)OCC(c2ccc(CN3CCC(C(O)(c4ccc(OC(F)(F)F)cc4)c4ccc(OC(F)(F)F)cc4)CC3)cc2)O1 (stereo not drawn) [Compound 76] | 100% |  | 100%
6 | C=CCOCC1COC(c2ccc(CN3CCC(C(O)(c4ccc(OC(F)(F)F)cc4)c4ccc(OC(F)(F)F)cc4)CC3)cc2)O1 (stereo not drawn) [Compound 91] | 100% |  | 100%
7 | OC(c1ccc(OC(F)(F)F)cc1)(c1ccc(OC(F)(F)F)cc1)C1CCN(Cc2ccc(C3(c4ccc(Cl)nc4)OCCO3)cc2)CC1 [Compound 83] | 31% |  | 0%
8 | OC(c1ccc(OC(F)(F)F)cc1)(c1ccc(OC(F)(F)F)cc1)C1CCN(Cc2ccc(C3SCCS3)cc2)CC1 [Compound 15] | 100% |  | 100%
9 | OC(c1ccc(OC(F)(F)F)cc1)(c1ccc(OC(F)(F)F)cc1)C1CCN(Cc2ccc(C3OCCCO3)cc2)CC1 [Compound 4] | 100% |  | 100%
10 | COc1ccc(C2(COc3ccc(CN4CCC(C(O)(c5ccc(OC(F)(F)F)cc5)c5ccc(OC(F)(F)F)cc5)CC4)cc3)OCCO2)cc1 [Compound 192] | 100% |  | 100%
11 | [O-][N+]1(Cc2ccc(C3(Cc4ccccc4)OCCO3)cc2)CCC(C(O)(c2ccc(OC(F)(F)F)cc2)c2ccc(OC(F)(F)F)cc2)CC1 (stereo not drawn) [Compound 65] | 100% |  | 67%
12 | OC(c1ccc(OC(F)(F)F)cc1)(c1ccc(OC(F)(F)F)cc1)C1CCN(Cc2ccc(C3(c4ccccc4)OCCO3)cc2)CC1 [Compound 57] | 100% |  | 100%
13 | OC(c1ccc(OC(F)(F)F)cc1)(c1ccc(OC(F)(F)F)cc1)C1CCN(Cc2ccc(OCC3OCCCO3)cc2)CC1 [Compound 199, bis[4-(trifluoromethoxy)-phenyl](1-{[4-(1,3-dioxan-2-ylmethoxy)phenyl]methyl}(4-piperidyl))methan-1-ol] | 100% |  | 100%
14 | CC1COC(c2ccc(C[N+]3([O-])CCC(C(O)(c4ccc(OC(F)(F)F)cc4)c4ccc(OC(F)(F)F)cc4)CC3)cc2)O1 (stereo not drawn) [Compound 9] | 100% |  | 100%
15 | OC(c1ccc(Cl)c(Cl)c1)(c1ccc(Cl)c(Cl)c1)C1CCN(Cc2ccc(C3OCCO3)cc2)CC1 [Compound 145] | 100% |  | 100%
16 | [O-][N+]1(Cc2ccc(CC3OCCO3)cc2)CCC(C(O)(c2ccc(OC(F)(F)F)cc2)c2ccc(OC(F)(F)F)cc2)CC1 (stereo not drawn) [Compound 184] | 100% |  | 100%
17 | [O-][N+]1(Cc2ccc(C3(c4ccc(Cl)nc4)OCCO3)cc2)CCC(C(O)(c2ccc(OC(F)(F)F)cc2)c2ccc(OC(F)(F)F)cc2)CC1 (stereo not drawn) [Compound 87] | 79% |  | 17%
18 | bis(4-trifluoromethoxyphenyl])(1-{[4-(1,3-dioxan-2-ylmethoxy)phenyl]methyl}(4-piperidyl))methan-1-ol, N-oxide [Compound 200] | 100% |  | 100%
19 | CC1(C)CCOC(c2ccc(CN3CCC(C(O)(c4ccc(OC(F)(F)F)cc4)c4ccc(OC(F)(F)F)cc4)CC3)cc2)O1 (stereo not drawn) [Compound 69] | 100% |  | 100%
20 | [O-][N+]1(Cc2ccc(C3OCCCO3)cc2)CCC(C(O)(c2ccc(OC(F)(F)F)cc2)c2ccc(OC(F)(F)F)cc2)CC1 (stereo not drawn) [Compound 5] | 100% |  | 100%
21 | C=CC1COC(c2ccc(C[N+]3([O-])CCC(C(O)(c4ccc(OC(F)(F)F)cc4)c4ccc(OC(F)(F)F)cc4)CC3)cc2)O1 (stereo not drawn) [Compound 86] | 100% |  | 100%

From patent publication US20090082203A1, “INSECTICIDAL BIS(SUBSTITUTED PHENYL)-1-{[4-(SATURATED HETEROCYCLYL-SUBSTITUTED)PHENYLMETHYL]- (4-PIPERIDYL)}METHANE DERIVATIVES” (priority 2004, published 2009)
